According to patent US6645983B1, “Pharmaceutical compositions comprising 4-quinolones for treating cancers” (Laboratoire L. Lafon, priority 1999, dated 2003):
Where two headings read alike, the source gives them in different places.

Assays:
[1] = system: T-47D; experiment: MTT test, cytotoxic activity on non-clonogenic cell lines; format: cell-based; conditions: Homo sapiens, T47D, 10^−5 M, mean value
In short: (§1)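 Human cancer lines seeded at 20 000–50 000 cells/ml, allowed 24 h to attach, then exposed to compounds at 10^−5 to 10^−10 M versus solvent control.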

[2] = system: LoVo; experiment: as above; format: cell-based; conditions: Homo sapiens, 10^−5 M, mean value
In short: as §1

[3] = system: A-427; experiment: as above; format: cell-based; conditions: Homo sapiens, 10^−5 M, mean value
In short: as §1

[4] = system: MCF7; experiment: as above; format: cell-based; conditions: Homo sapiens, 10^−5 M, mean value
In short: as §1

[5] = system: PC-3; experiment: as above; format: cell-based; conditions: Homo sapiens, 10^−5 M, mean value
In short: as §1

[6] = system: U-87MG; experiment: as above; format: cell-based; conditions: Homo sapiens, 10^−5 M, mean value
In short: as §1

[7] = system: A549; experiment: as above; format: cell-based; conditions: Homo sapiens, 10^−5 M, mean value
In short: as §1

[8] = system: U-373MG; experiment: as above; format: cell-based; conditions: Homo sapiens, U373 MG, 10^−5 M, mean value
In short: as §1

[9] = system: HCT-15; experiment: as above; format: cell-based; conditions: Homo sapiens, mean value
In short: as §1

[10] = system: SW1088; experiment: as above; format: cell-based; conditions: Homo sapiens, 10^−5 M, mean value
In short: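 Human astrocytoma SW1088 cells seeded, grown 24 h at 37° C, 5% CO2, then exposed to compounds at 10^−5 to 10^−10 M versus solvent control. Viability by MTT reduction: 3 h MTT incubation, formazan dissolved in DMSO and read by spectrophotometry.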

[11] = system: HCT-15
[12] = system: T24; experiment: MTT test, cytotoxic activity on non-clonogenic cell lines; format: cell-based; conditions: Homo sapiens, T-24, 10^−5 M, mean value
In short: (§2)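 Human bladder cancer lines were seeded at 20 000–50 000 cells/ml and, after 24 h, exposed to compounds at 10^−5 to 10^−10 M against a solvent control. Formazan was dissolved in DMSO and viability was read by spectrophotometric optical density.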

[13] = system: J82; experiment: as above; format: cell-based; conditions: Homo sapiens, 10^−5 M, mean value
In short: as §2

[14] = system: HCT-15; experiment: cells; conditions: Homo sapiens, HCT-15, read-out: concentration that inhibits by 50% (IC50) the in vitro cell growth of the HCT-15 line
[15] = 72 hours of incubation, control condition = 100%, read-out: mean optical density as percentage of control, T-47D
[16] = 72 hours of incubation, control condition = 100%, read-out: mean optical density as percentage of control, LoVo
[17] = 72 hours of incubation, control condition = 100%, read-out: mean optical density as percentage of control, A-427
[18] = 72 hours of incubation, control condition = 100%, read-out: mean optical density as percentage of control, MCF7
[19] = 72 hours of incubation, control condition = 100%, read-out: mean optical density as percentage of control, PC-3
[20] = U-87 MG, 72 hours of incubation, control condition = 100%, read-out: mean optical density as percentage of control, U-87MG
[21] = 72 hours of incubation, control condition = 100%, read-out: mean optical density as percentage of control, A549
[22] = 72 hours of incubation, control condition = 100%, read-out: mean optical density as percentage of control, U-373MG
[23] = 10^−5 M, 72 hours of incubation, control condition = 100%, read-out: mean optical density as percentage of control, HCT-16
[24] = 72 hours of incubation, control condition = 100%, read-out: mean optical density as percentage of control, SW1088
[25] = 72 hours of incubation, control condition = 100%, read-out: mean optical density as percentage of control, T24
[26] = 72 hours of incubation, control condition = 100%, read-out: mean optical density as percentage of control, J82
[27] = 72 hours incubation, MTT, read-out: mean optical density, expressed as percentage relative to the mean optical density under the control condition (100%)

COc1ccc(-c2cnc3c(OC)ccc(OC)c3c2OCCN(C)C)cc1 [CRL8370, N-{2-[5,8-Dimethoxy-3-(4-methoxyphenyl)-4-quinolyl]oxy}ethyl-N,N-dimethylamine]
melting point: 69 to 70 °C | viability at 10 µM [1, 15]: 88.5% | viability at 10 µM [2, 16]: 95.1% | viability at 10 µM [3, 17]: 76% | viability at 10 µM [4, 18]: 88.5% | viability at 10 µM [5, 19]: 87.1% | viability at 10 µM [6, 20]: 104% | viability at 10 µM [7, 21]: 85.6% | viability at 10 µM [8, 22]: 105% | viability at 10 µM [9, 23]: 103% | viability at 10 µM [10, 24]: 99.4% | amplification compared with the activity of adriamycin alone (gain / activity alone) ([11]; 10^−5 M compound + 10^−7 M adriamycin, 15.2/42.8): about 35% | viability at 10 µM [12, 25]: 74.3% | viability at 10 µM [13, 26]: 102%

COc1ccc(-c2cn(CCCC#N)c3c(OC)ccc(OC)c3c2=O)cc1 [CRL8421, 4-[5,8-Dimethoxy-3-(4-methoxyphenyl)-4-oxo-1,4-dihydro-1-quinolinyl]butanenitrile]
melting point: 126 to 127 °C | viability at 10 µM [1, 15]: 83.5% | viability at 10 µM [2, 16]: 60.8% | viability at 10 µM [3, 17]: 33% | viability at 10 µM [4, 18]: 49.5% | viability at 10 µM [5, 19]: 61.4% | viability at 10 µM [6, 20]: 29.9% | viability at 10 µM [7, 21]: 97.5% | viability at 10 µM [8, 22]: 81.7% | viability at 10 µM [9, 23]: 50% | viability at 10 µM [10, 24]: 51% | viability at 10 µM [12, 25]: 40.3% | viability at 10 µM [13, 26]: 47.1%

COc1ccc(-c2cn(CCN(C)C)c3cc(OC)ccc3c2=O)cc1 [CRL8469, N-[3-(Dimethylamino)ethyl]-7-methoxy-3-(4-methoxyphenyl)-1,4-dihydro-4-quinolinone]
melting point: 142 to 143 °C | viability at 10 µM ([1]; T-47D, 72 hours incubation, MTT, read-out: mean optical density, expressed as percentage relative to the mean optical density under the control condition (100%)): 103% | viability at 10 µM [2, 27]: 95.9% | viability at 10 µM [3, 27]: 102% | viability at 10 µM [4, 27]: 97.6% | viability at 10 µM [5, 27]: 99.9% | viability at 10 µM ([6]; U-87MG, 72 hours incubation, MTT, read-out: mean optical density, expressed as percentage relative to the mean optical density under the control condition (100%)): 108% | viability at 10 µM [7, 27]: 100% | viability at 10 µM ([8]; U-373MG, 72 hours incubation, MTT, read-out: mean optical density, expressed as percentage relative to the mean optical density under the control condition (100%)): 102% | viability at 10 µM ([9]; HCT-16, 10^−5 M, 72 hours incubation, MTT, read-out: mean optical density, expressed as percentage relative to the mean optical density under the control condition (100%)): 101% | viability at 10 µM [10, 27]: 105% | viability at 10 µM ([12]; T24, 72 hours incubation, MTT, read-out: mean optical density, expressed as percentage relative to the mean optical density under the control condition (100%)): 98.1% | viability at 10 µM [13, 27]: 89.5%

COc1ccc(-c2cn(CCOS(=O)(=O)c3ccc(C)cc3)c3c(OC)ccc(OC)c3c2=O)cc1 [CRL8517, 4-2-[5,8-Dimethoxy-3-(4-methoxyphenyl)-4-oxo-1,4-dihydro-1-quinolyl]ethyl p-Toluenesulfonate]
melting point: 85 to 86 °C

COc1ccc(-c2cn(CCC#N)c3c(OC)ccc(OC)c3c2=O)cc1 [CRL8518, 3-[5,8-Dimethoxy-3-(4-methoxyphenyl)-4-oxo-1,4-dihydro-1-quinolinyl]propanenitrile]
melting point: 79 to 80 °C

COc1ccc(-c2cnc3c(OC)ccc(OC)c3c2OCCCCC#N)cc1 [CRL8519, {[5,8-Dimethoxy-3-(4-methoxyphenyl)-4-quinolyl]oxy}pentanenitrile]
melting point: 126 to 127 °C

C=CCNc1cc(OC)cc2c1c(=O)c(-c1ccc(OC)cc1)cn2C [CRL8520, 5-Allylamino-7-methoxy-3-(4-methoxyphenyl)-1-methyl-1,4-dihydro-4-quinolinone]
melting point: 154 to 155 °C

COc1ccc(CNc2cc(OC)cc3c2c(=O)c(-c2ccc(OC)cc2)cn3C)cc1 [CRL8521, 5-(4-Methoxybenzylamino)-7-methoxy-3-(4-methoxyphenyl)-1-methyl-1,4-dihydro-4-quinolinone]
melting point: 144 to 145 °C

COc1ccc(-c2cn(CC#N)c3cc(OC)ccc3c2=O)cc1 [CRL8522, [7-Methoxy-3-(4-methoxyphenyl)-4-oxo-1,4-dihydro-1-quinolinyl]acetonitrile]
melting point: 206 to 207 °C

CCN(CC)C(=O)CCn1cc(-c2ccc(OC)cc2)c(=O)c2ccc(OC)cc21 [CRL8525, N,N-Diethyl-3-[7-methoxy-3-(4-methoxyphenyl)-4-oxo-1,4-dihydro-1-quinolinyl]propanamide]
melting point: 158 to 159 °C

COc1cccc2c1C(=O)c1c(O)c3c(c(O)c1C2=O)C[C@@](O)(C(=O)CO)C[C@@H]3O[C@H]1C[C@H](N)[C@H](O)[C@H](C)O1 [adriamycin, reference compound]
IC50 [14]: 100 nM | inhibition [11]: 42.8%

COc1cc([C@@H]2c3cc4c(cc3[C@@H](O[C@@H]3O[C@@H]5CO[C@@H](C)O[C@H]5[C@H](O)[C@H]3O)[C@H]3COC(=O)[C@H]23)OCO4)cc(OC)c1O [etoposide]
IC50 [14]: 1000 nM
